Data: patent US20250339091A1, “HONEY BEE-DERIVED BIOACTIVE WOUND DRESSING WITH SUSTAINED ANTIMICROBIAL RELEASE” (priority 2025, published 2025)

Test: fluorescent dye diffusion assays in simulated wound fluid
Type: physicochemical
Protocol: For example, in experiments using rhodamine B as a tracer molecule, diffusion coefficients within the patterned hydrogel matrix increased from 1.4×10^−7 cm^2/s at 35° C. to 3.6×10^−7 cm^2/s at 37.5° C., confirming the gating effect of the thermoresponsive architecture. The permeability enhancement facilitates more rapid passive diffusion of bioactive agents—such as hydrogen peroxide from raw honey or flavonoids from propolis extract—from the surrounding microcapsules into the wound site, even before active actuator-based release is triggered. This early-stage, temperature-coupled passive transport acts as a preemptive therapeutic buffer, delivering antimicrobials during acute inflammatory flares while reducing latency between pathogenic escalation and drug availability.

## CCN(CC)c1ccc2c(-c3ccccc3C(=O)O)c3ccc(=[N+](CC)CC)cc-3oc2c1.[Cl-] [rhodamine B]
At 35° C.
  diffusion coefficient within the patterned hydrogel matrix: 1.4×10^−7 cm^2/s
At 37.5° C.
  diffusion coefficient within the patterned hydrogel matrix: 3.6×10^−7 cm^2/s
